Structures can show the parent of a compound that is named as a salt.
system: Acinetobacter baumannii ATCC17978; assay: Antimicrobial susceptibility testing: 90% growth inhibitory concentration (IC90) determination, Iso-Sensitest broth, OD 600 nm; type: cell-based; details: 90% growth inhibitory concentration, Acinetobacter baumannii ATCC17978, Iso-Sensitest broth, OD 600 nm over 16 h; read-out: ATCC 17978 IC90
Procedure: Antimicrobial Susceptibility Testing:
90% Growth Inhibitory Concentration (IC90) Determination
The in vitro antimicrobial activity of the compounds was determined according to the following procedure:
The assay used a 10-points Iso-Sensitest broth medium to measure quantitatively the in vitro activity of the compounds against Acinetobacter baumannii ATCC17978 and Acinetobacter baumannii ATCC17961.
Stock compounds in DMSO were serially twofold diluted (e.g. range from 50 to 0.097 μM final concentration) in 384 wells microtiter plates and inoculated with 49 μl the bacterial suspension in Iso-Sensitest medium to have a final cell concentration of ˜5×10^(5) CFU/ml in a final volume/well of 50 ul/well. Microtiter plates were incubated at 35±2° C.
Bacterial cell growth was determined with the measurement of optical density at λ=600 nm each 20 minutes over a time course of 16 h. Growth inhibition was calculated during the logarithmic growth of the bacterial cells with determination of the concentration inhibiting 50% (IC50) and 90% (IC90) of the growth.
Table 1 provides the 90% growth inhibitory concentrations (IC90) in micromoles per liter of the compounds of present invention obtained against the strain Acinetobacter baumannii ATCC17978 and Acinetobacter baumannii ATCC17961.

**Q.** How did the IC90 turn out when `COc1ccc(-c2cnc3c(Nc4ccc(C(=O)NCCOCCN5CCNCC5)c(C)c4)nccn23)cc1` [Example 44, 4-[[3-(4-methoxyphenyl)imidazo[1,2-a]pyrazin-8-yl]amino]-2-methyl-N-[2-(2-piperazin-1-ylethoxy)ethyl]benzamide;dihydrochloride] was run?
**A.** 460 nM

**Q.** How did the IC90 turn out when `CCc1cc(Nc2nccn3c(-c4ccc(OCC#N)c(F)c4F)cnc23)ccc1C(=O)NCCOCCN` [Example 53, N-(2-(2-aminoethoxy)ethyl)-4-((3-(4-(cyanomethoxy)-2,3-difluorophenyl)imidazo[1,2-a]pyrazin-8-yl)amino)-2-ethylbenzamide] was run?
**A.** 130 nM

same assay, conditions: Acinetobacter baumannii, ATCC17978, 16 h, 90% growth inhibitory concentration, Acinetobacter baumannii ATCC17978, Iso-Sensitest broth, OD 600 nm over 16 h; read-out: ATCC 17978 IC90

**Q.** How did the IC90 turn out when `COc1ccc(-c2cnc3c(Nc4ccc(C(=O)NCCOCCN5CCC(O)CC5)c(C)c4)nccn23)cc1` [Example 38, N-(2-(2-(4-hydroxypiperidin-1-yl)ethoxy)ethyl)-4-((3-(4-methoxyphenyl)imidazo[1,2-a]pyrazin-8-yl)amino)-2-methylbenzamide] was run?
**A.** 150 nM

**Q.** `CNCCOCCNC(=O)c1ccc(Nc2nccn3c(-c4ccc(OC)cc4)cnc23)cc1C` [Example 39, 4-((3-(4-methoxyphenyl)imidazo[1,2-a]pyrazin-8-yl)amino)-2-methyl-N-(2-(2-(methylamino)ethoxy)ethyl)benzamide] was tested. Which IC90 did it give?
**A.** 260 nM

**Q.** With `COc1ccc(-c2cnc3c(Nc4ccc(C(=O)NCCOCCNCCO)c(C)c4)nccn23)cc1` [Example 40, N-(2-(2-((2-hydroxyethyl)amino)ethoxy)ethyl)-4-((3-(4-methoxyphenyl)imidazo[1,2-a]pyrazin-8-yl)amino)-2-methylbenzamide] as the compound, how does the IC90 read?
**A.** 210 nM

**Q.** With `COc1ccc(-c2cnc3c(Nc4ccc(C(=O)NCCOCCNCC(F)F)c(C)c4)nccn23)cc1` [Example 41, N-(2-(2-((2,2-difluoroethyl)amino)ethoxy)ethyl)-4-((3-(4-methoxyphenyl)imidazo[1,2-a]pyrazin-8-yl)amino)-2-methylbenzamide] as the compound, how does the IC90 read?
**A.** 450 nM

**Q.** How did the IC90 turn out when `COc1ccc(-c2cnc3c(Nc4ccc(C(=O)NCCOCCN5CC6(COC6)C5)c(C)c4)nccn23)cc1` [Example 42, N-(2-(2-(2-oxa-6-azaspiro[3.3]heptan-6-yl)ethoxy)ethyl)-4-((3-(4-methoxyphenyl)imidazo[1,2-a]pyrazin-8-yl)amino)-2-methylbenzamide] was run?
**A.** 250 nM

**Q.** `COc1ccc(-c2cnc3c(Nc4ccc(C(=O)NCCOCCN5CCC(F)CC5)c(C)c4)nccn23)cc1` [Example 43, N-(2-(2-(4-fluoropiperidin-1-yl)ethoxy)ethyl)-4-((3-(4-methoxyphenyl)imidazo[1,2-a]pyrazin-8-yl)amino)-2-methylbenzamide] was tested. Which IC90 did it give?
**A.** 290 nM

**Q.** For `CNCCOCCNC(=O)c1ccc(Nc2nccn3c(-c4ccc(OC(F)F)cc4)cnc23)cc1C` [Example 45, 4-((3-(4-(difluoromethoxy)phenyl)imidazo[1,2-a]pyrazin-8-yl)amino)-2-methyl-N-(2-(2-(methylamino)ethoxy)ethyl)benzamide], which IC90 is on record?
**A.** 290 nM

**Q.** Which IC90 does the source give for `Cc1cc(Nc2nccn3c(-c4ccc(OC(F)F)cc4)cnc23)ccc1C(=O)NCCS(=O)(=O)CCN` [Example 46, N-(2-((2-Aminoethyl)sulfonyl)ethyl)-4-((3-(4-(difluoromethoxy)phenyl)imidazo[1,2-a]pyrazin-8-yl)amino)-2-methylbenzamide] here?
**A.** 530 nM

**Q.** How did the IC90 turn out when `Cc1cc(Nc2nccn3c(-c4ccc(OC(F)F)cc4)cnc23)ccc1C(=O)NCC[S+]([O-])CCN` (stereo not shown) [Example 47, N-(2-((2-Aminoethyl)sulfinyl)ethyl)-4-((3-(4-(difluoromethoxy)phenyl)imidazo[1,2-a]pyrazin-8-yl)amino)-2-methylbenzamide] was run?
**A.** 920 nM

**Q.** For `CCc1cc(Nc2nccn3c(-c4ccc(OC)c(F)c4F)cnc23)ccc1C(=O)NCCNCC(=O)O` [Example 48, (2-(4-((3-(2,3-difluoro-4-methoxyphenyl)imidazo[1,2-a]pyrazin-8-yl)amino)-2-ethylbenzamido)ethyl)glycine compound with 2,2,2-trifluoroacetic acid], which IC90 is on record?
**A.** 920 nM

**Q.** Which IC90 does the source give for `CCc1cc(Nc2nccn3c(-c4ccc(OC)c(F)c4F)cnc23)ccc1C(=O)NCCCNCC(=O)O` [Example 49, (3-(4-((3-(2,3-difluoro-4-methoxyphenyl)imidazo[1,2-a]pyrazin-8-yl)amino)-2-ethylbenzamido)propyl)glycine compound trifluoroacetate] here?
**A.** 380 nM

**Q.** For `CCc1cc(Nc2nccn3c(-c4ccc(OC)c(F)c4F)cnc23)ccc1C(=O)NCCCCCNCC(=O)O` [Example 50, (5-(4-((3-(2,3-difluoro-4-methoxyphenyl)imidazo[1,2-a]pyrazin-8-yl)amino)-2-ethylbenzamido)pentyl)glycine hydrochloride], which IC90 is on record?
**A.** 190 nM

**Q.** Which IC90 does the source give for `CCc1cc(Nc2nccn3c(-c4ccc(OC(F)F)c(F)c4F)cnc23)ccc1C(=O)NCCOCCN(C)CC(=O)O` [Example 51, N-(2-(2-(4-((3-(4-(Difluoromethoxy)-2,3-difluorophenyl)imidazo[1,2-a]pyrazin-8-yl)amino)-2-ethylbenzamido)ethoxy)ethyl)-N-methylglycine trifluoroacetate] here?
**A.** 300 nM

**Q.** `CCc1cc(Nc2nccn3c(-c4ccc(OC)c(F)c4F)cnc23)ccc1C(=O)NCCOCCN(C)CC(=O)O` [Example 52, N-(2-(2-(4-((3-(2,3-difluoro-4-methoxyphenyl)imidazo[1,2-a]pyrazin-8-yl)amino)-2-ethylbenzamido)ethoxy)ethyl)-N-methylglycine hydrochloride] was tested. Which IC90 did it give?
**A.** 320 nM

**Q.** Which IC90 does the source give for `COc1ccc(-c2cnc3c(Nc4cc(F)c(C(=O)NCCOCCN)c(F)c4)nccn23)c(F)c1F` [Example 59, N-(2-(2-aminoethoxy)ethyl)-4-((3-(2,3-difluoro-4-methoxy-phenyl)imidazo[1,2-a]pyrazin-8-yl)amino)-2,6-difluoro-benzamide] here?
**A.** 130 nM

same assay, conditions: Acinetobacter baumannii, ATCC17978, 16 h, read-out: ATCC 17978 IC90

**Q.** `COc1ccc(-c2cnc3c(Nc4ccc(C(=O)NCCOCCN)c(C)c4)nccn23)cc1Cl` [Example 30, N-(2-(2-aminoethoxy)ethyl)-4-((3-(3-chloro-4-methoxyphenyl)imidazo[1,2-a]pyrazin-8-yl)amino)-2-methylbenzamide hydrochloride] was tested. Which IC90 did it give?
**A.** 140 nM

**Q.** How did the IC90 turn out when `Cc1cc(Nc2nccn3c(-c4ccc(F)cc4)cnc23)ccc1C(=O)NCCOCCN` [Example 31, N-(2-(2-aminoethoxy)ethyl)-4-((3-(4-fluorophenyl)imidazo[1,2-a]pyrazin-8-yl)amino)-2-methylbenzamide hydrochloride] was run?
**A.** 950 nM

**Q.** How did the IC90 turn out when `Cc1cc(Nc2nccn3c(-c4ccc(Cl)c(F)c4)cnc23)ccc1C(=O)NCCOCCN` [Example 32, N-(2-(2-aminoethoxy)ethyl)-4-((3-(4-chloro-3-fluorophenyl)imidazo[1,2-a]pyrazin-8-yl)amino)-2-methylbenzamide hydrochloride] was run?
**A.** 300 nM

**Q.** For `Cc1cc(Nc2nccn3c(-c4ccc(F)c(F)c4)cnc23)ccc1C(=O)NCCOCCN` [Example 33, N-(2-(2-aminoethoxy)ethyl)-4-((3-(3,4-difluorophenyl)imidazo[1,2-a]pyrazin-8-yl)amino)-2-methylbenzamide hydrochloride], which IC90 is on record?
**A.** 520 nM

**Q.** For `COc1ccc(-c2cnc3c(Nc4ccc(C(=O)NCCOCCN)c(C)c4)nccn23)c(F)c1` [Example 34, N-(2-(2-aminoethoxy)ethyl)-4-((3-(2-fluoro-4-methoxyphenyl)imidazo[1,2-a]pyrazin-8-yl)amino)-2-methylbenzamide hydrochloride], which IC90 is on record?
**A.** 590 nM

**Q.** For `Cc1cc(Nc2nccn3c(-c4ccc(F)cc4F)cnc23)ccc1C(=O)NCCOCCN` [Example 35, N-(2-(2-aminoethoxy)ethyl)-4-((3-(2,4-difluorophenyl)imidazo[1,2-a]pyrazin-8-yl)amino)-2-methylbenzamide hydrochloride], which IC90 is on record?
**A.** 770 nM

**Q.** `COc1ccc(-c2cnc3c(Nc4ccc(C(=O)NCCOCCN)c(C)c4)nccn23)cc1F` [Example 36, N-(2-(2-aminoethoxy)ethyl)-4-((3-(3-fluoro-4-methoxyphenyl)imidazo[1,2-a]pyrazin-8-yl)amino)-2-methylbenzamide hydrochloride] was tested. Which IC90 did it give?
**A.** 160 nM

**Q.** For `Cc1cc(Nc2nccn3c(-c4ccc(F)c(F)c4F)cnc23)ccc1C(=O)NCCOCCN` [Example 37, N-(2-(2-aminoethoxy)ethyl)-2-methyl-4-((3-(2,3,4-trifluorophenyl)imidazo[1,2-a]pyrazin-8-yl)amino)benzamide hydrochloride], which IC90 is on record?
**A.** 370 nM

**Q.** With `CCc1cc(Nc2nccn3c(-c4c(F)cc(OC)cc4F)cnc23)ccc1C(=O)NCCOCCN` [Example 54, N-[2-(2-aminoethoxy)ethyl]-4-[[3-(2,6-difluoro-4-methoxyphenyl)imidazo[1,2-a]pyrazin-8-yl]amino]-2-ethylbenzamide hydrochloride] as the compound, how does the IC90 read?
**A.** 320 nM

**Q.** `CCc1cc(Nc2nccn3c(-c4ccc(OC)cc4N)cnc23)ccc1C(=O)NCCOCCN` [Example 57, 4-((3-(2-amino-4-methoxyphenyl)imidazo[1,2-a]pyrazin-8-yl)amino)-N-(2-(2-aminoethoxy)ethyl)-2-ethylbenzamide hydrochloride] was tested. Which IC90 did it give?
**A.** 650 nM

**Q.** `COc1ccc(-c2cnc3c(Nc4cc(C)c(C(=O)NCCOCCN)c(F)c4)nccn23)c(F)c1F` [Example 58, N-(2-(2-Aminoethoxy)ethyl)-4-((3-(2,3-difluoro-4-methoxyphenyl)imidazo[1,2-a]pyrazin-8-yl)amino)-2-fluoro-6-methylbenzamide formate] was tested. Which IC90 did it give?
**A.** 51 nM

From US20230017532A1 (Hoffmann-La Roche Inc., priority 2018, published 2023)
